Laboratory results from patent publication US12162857B2, “Antiviral compounds” (priority 2022, dated 2024).

Test system: HMPV A2 TN/94-49
Assay: HMPV antiviral assay: LLC-MK2 cells, ATP-Lite readout
Type: cell-based
Details: LLC-MK2, 168 h, MOI 0.005, 7 days incubation
Description: In vitro HMPV antiviral activity was evaluated using the clinical isolate A2 strain TN 94-49 and LLC-MK2 cells (ATCC #CCL-7), an immortalized kidney epithelial cell line from Macaca mulatta. Compounds were resuspended in dimethyl sulfoxide (DMSO) at 10 mM, serially diluted and added to a 384-well source plate. Subsequently, the compounds were diluted and transferred onto 384-well assay plates using the Echo-650 automated liquid handling system (Beckman Coulter, Indiana). The test compounds were assessed in duplicate at a top concentration of 2 μM followed by 2.5-fold serial dilutions to give a total of 10 concentration points. DMSO control wells were also included on the assay plates and were either infected or not, acting as positive and negative controls. A2 TN 94-49 virus infections were performed in-suspension with LLC-MK2 cells. The cells were washed twice with PBS and removed from the cell-culture flask with 0.25% trypsin-EDTA (Thermo Fisher Scientific, MA). The trypsin-EDTA was inactivated by resuspending in 2% fetal bovine serum (FBS) and OptiMEM (ThermoFisher Scientific, MA) containing 1% penicillin-streptomycin. Cells were pelleted by centrifuging for 5 minutes at 800 rpm, the supernatant was removed, and cells were re-suspended and washed in PBS plus 100 μg/mL CaCl2). This step was performed twice. Cells were then re-suspended in serum-free (SF)-OptiMEM containing 4 μg/mL TPCK-Trypsin (Sigma Aldrich, MO), 1% penicillin-streptomycin (ThermoFisher Scientific, MA) and 100 μg/mL CaCl2). Cells were counted and seeded at a density of 5,000 cells/well, 12.5 μL/well. Virus infections were done at a multiplicity of infection (MOI) of 0.005 with 12.5 μL added per well. Virus infections were performed in infection media which contained SF-OptiMEM, 100 μg/mL CaCl2) and 1% penicillin-streptomycin. HMPV viral stocks are suspended in infection media+5% glycerol, thus an equal volume of infection media+5% glycerol was added to uninfected wells to equalize the final % glycerol across all wells of the assay plate. The final concentration of TPCK-trypsin was 2 μg/mL. The assay plates were incubated at 37° C., 5% CO2 for 7 days. After 7 days incubation, 12.5 μL of ATP-Lite (PerkinElmer, MA) was added to each well and the raw luminescence values were determined using the Envision 2104 (Perkin Elmer, MA). The average of the raw luminescence values for the cells and virus only positive control wells was subtracted from all conditions tested and the percent cell health was determined by dividing these values by the average of the cells only negative control wells. EC50 values were then calculated by non-linear regression using a four-parameter curve logistic equation. The curve fit model employed was XLFit Dose Response One Site Model 200: y=(A+(B/(1+((x/C)^D)))), where A is the minimum y value, B is the maximum y value, C is the log EC50 value, and D is the slope factor. […] EC50 ranges are as follows: A<1 μM; B>1 μM.

EC50	SMILES
> 1000 nM	COc1cc(C(=O)NC[C@@](O)(c2ccccc2)c2cc(N3C(=O)CCC3C(N)=O)cc(-c3cc(Cl)c(F)cc3F)n2)cc2cn(C3CC3)nc12 (some centres unmarked) [Example 197]
> 1000 nM	COc1cc(C(=O)NC[C@@](O)(c2ccccc2)c2cc(C(C)(C)C(N)=O)c(F)c(-c3cc(Cl)c(F)cc3F)n2)cc2cn(C(F)F)nc12 [Example 161]
> 1000 nM	COc1cc(C(=O)NC[C@@](O)(c2ccccc2)c2cc(C(C)(C)F)c(F)c(-c3cc(Cl)c(F)cc3F)n2)cc2cn(C3CC3)nc12 [Example 180]
< 1000 nM	COc1cc(C(=O)NC[C@@](O)(c2ccccc2)c2cc(C(C)(C)O)cc(-c3ccc(F)c(Cl)c3Cl)n2)cc2cn(C(F)F)nc12 [Example 154]
< 1000 nM	COc1cc(C(=O)NC[C@@](O)(c2cccc(F)c2)c2cc(C(C)(C)O)c(F)c(-c3ccc(F)c(Cl)c3Cl)n2)cc2cn(C(F)F)nc12 [Example 104]
< 1000 nM	COc1cc(C(=O)NC[C@@](O)(c2ccccc2)c2cc(C(C)(C)O)c(Cl)c(-c3ccc4c(c3Cl)OC(F)(F)O4)n2)cc2cn(C(F)F)nc12 [Example 138]
< 1000 nM	COc1cc(C(=O)NC[C@@](O)(c2ccccc2)c2nc(-c3cc(Cl)c(F)cc3F)c(F)c(C(C)(C)O)c2F)cc2cc(C3CC3)nn12 [Example 129]
< 1000 nM	COc1cc(C(=O)NC[C@@](O)(c2ccccc2)c2cc(C(C)(C)O)cc(-c3ccc4c(c3Cl)OC(F)(F)O4)n2)cc2sc(C)nc12 [Example 157]
> 1000 nM	COc1cc(C(=O)NC[C@@](O)(c2ccccc2)c2cc(C(C)(C)O)c(F)c(-c3ccc(F)cc3F)n2)cc2cn(C3CC3)nc12 [Example 87]
< 1000 nM	CC(C)(O)c1cc([C@@](O)(CNC(=O)c2cc(Cl)c3nn(C4CC4)cc3c2)c2cccc(F)c2)nc(-c2cc(Cl)c(F)cc2F)c1F [Example 91]
< 1000 nM	COc1cc(C(=O)NC[C@](O)(c2cc(C(C)(C)O)c(F)c(-c3cc(Cl)c(F)cc3F)n2)C2CC2)cc2cn(C3(F)CC3)nc12 [Example 53]
< 1000 nM	CC(C)(O)c1cc([C@@](O)(CNC(=O)c2cc(OC3CC3)c3nn(C4CC4)cc3c2)c2ccccc2)nc(-c2cc(Cl)c(F)cc2F)c1F [Example 63]
< 1000 nM	COc1cc(C(=O)NC[C@@](O)(c2ccccc2)c2nc(-c3cc(Cl)c(F)cc3F)c(F)c(C(C)(C)O)c2F)cc2sc(C)nc12 [Example 130]
< 1000 nM	COc1cc(C(=O)NC[C@@](O)(c2ccccc2)c2cc(C(C)(C)O)cc(-c3ccc4c(c3Cl)OC(F)(F)O4)n2)cc2cn(C(F)F)nc12 [Example 158]
< 1000 nM	[2H]C([2H])([2H])C(O)(c1cc([C@@](O)(CNC(=O)c2cc(OC)c3nn(C(F)F)cc3c2)C2CC2)nc(-c2cc(Cl)c(F)cc2F)c1F)C([2H])([2H])[2H] [Example 188]
> 1000 nM	COc1cc(C(=O)NC[C@@](O)(c2ccccc2)c2cc(N3CC[C@H](O)C3)cc(-c3cc(Cl)c(F)cc3F)n2)cc2cn(C3CC3)nc12 [Example 198]
< 1000 nM	CC(C)(O)c1cc([C@@](O)(CNC(=O)c2cc(OC3CC3)c3nn(C4CC4)cc3c2)c2ccccc2)nc(-c2ccc(F)c(Cl)c2F)c1F [Example 125]
> 1000 nM	COc1cc(C(=O)NC[C@@](O)(c2ccccc2)c2cc(C(C)(C)O)c(F)c(-c3cc(F)ccc3F)n2)cc2cn(C3CC3)nc12 [Example 83]
> 1000 nM	COc1cc(C(=O)NC[C@@](O)(c2cccc(F)c2)c2cc(C(C)(C)O)c(F)c(-c3ccc(F)c(Cl)c3Cl)n2)cc2cc(C3CC3)nn12 [Example 106]
< 1000 nM	CC(C)(O)c1cc([C@@](O)(CNC(=O)c2cc(Cl)c3nn(C4CC4)cc3c2)c2cccc(F)c2)nc(-c2cc(F)c(F)cc2F)c1F [Example 97]
> 1000 nM	COc1cc(C(=O)NC[C@](O)(c2ccc(F)c(-c3cc(Cl)c(F)cc3F)n2)C2CC2)cc2cn(C(F)F)nc12 [Example 174]
< 1000 nM	COc1cc(C(=O)NC[C@](O)(c2cc(C(C)(C)O)c(F)c(-c3cc(Cl)c(F)cc3F)n2)C2CC2)cc2cn(C(F)F)nc12 [Example 54]
< 1000 nM	COc1cc(C(=O)NC[C@](O)(c2cc(C(C)(C)O)c(F)c(-c3cc(Cl)c(F)cc3F)n2)C2CC2)cc2cc(C3CC3)nn12 [Example 56]
< 1000 nM	COc1cc(C(=O)NC[C@@](O)(c2cccc(F)c2)c2cc(C(C)(C)O)c(F)c(-c3cc(Cl)c(F)cc3F)n2)cc2cn(C3CC3)nc12 [Example 90]
> 1000 nM	COc1cc(C(=O)NC[C@](O)(c2ccc(F)c(-c3cc(Cl)c(F)cc3F)n2)C2CC2)cc2cn(C3CC3)nc12 [Example 171]
> 1000 nM	COc1cc(C(=O)NC[C@](O)(c2cc(C(C)(C)F)c(F)c(-c3cc(Cl)c(F)cc3F)n2)C2CC2)cc2cc(C3CC3)nn12 [Example 178]
< 1000 nM	COc1cc(C(=O)NC[C@@](O)(c2ccccc2)c2cc(C(C)(C)O)c(F)c(-c3cc(Cl)c(F)cc3F)n2)cc2cn(C3(F)CC3)nc12 [Example 61]
> 1000 nM	COc1cc(C(=O)NC[C@](O)(c2cc(C(C)(C)F)c(F)c(-c3cc(Cl)c(F)cc3F)n2)C2CC2)cc2cn(C(F)F)nc12 [Example 179]
> 1000 nM	CC(C)(O)c1cc([C@@](O)(CNC(=O)c2cc(Cl)c3nn(C4CC4)cc3c2)c2ccccc2)nc(-c2cc(Cl)c(F)cc2F)c1Cl [Example 133]

Test system: Human RSV-A (“Long” strain)
Assay: RSV-A assay: CPE in Hep-2 cells, ATPlite readout
Type: cell-based
Details: human respiratory syncytial virus, 120 h, MOI 0.1, 5-day incubation
Text: Hep-2 cells, (originally derived from tumors grown in irradiated-cortisonised weanling rats that had been injected with epidermoid carcinoma tissue from a person's larynx, but later found to be indistinguishable from HeLa cells by PCR DNA analysis), were used for the culturing of genotype A, “Long” strain RSV. Flasks were inoculated with RSV and viral stocks were collected once cytopathic effect (CPE) was greater than 90%. Viral stocks in 25% sucrose media were snap frozen using liquid nitrogen to increase viral stability. Viral stock titers were quantified by tissue culture infectious dose 50% (TCID50) using 8,000 cells per well and 3-fold viral dilutions across a 96-well plate, cultured for 4 days. Viral stock titers were also quantified by a plaque forming unit assay, as described elsewhere.
Following extensive parameter testing, the final assay is run as follows: Hep-2 cells are seeded into the inner 60 wells of a 96-well plate at 8,000 cells per well in a volume of 50 μL using Growth Media (DMEM without phenol red, 1% L-Glut, 1% Penn/Strep, 1% nonessential amino acids, 10% heat-inactivated FBS). 2-fold serial dilutions of control and test compounds are added to the wells in duplicate in a total volume of 25 μL. Viral stock is then added to the wells at a multiplicity of infection (MOI) of 0.1 in a volume of 25 μL, bringing the total volume of each well to 100 μL. The MOI is calculated using the PFU/mL, or TCID50 if unavailable. Each 96-well plate has a control column of 6 wells with cells and virus but no compound (negative control, max CPE), a column with cells but no compound or virus (positive control, minimum CPE), and a column with no cells or virus or compound (background plate/reagent control). The control wells with cells but no virus are given an additional 25 μL of growth media containing an equal quantity of sucrose as those wells receiving the viral stock in order to keep consistent in media and volume conditions. The outer wells of the plate are filled with 125 μL of moat media (DMEM, 100 Penn/Strep) to act as a thermal and evaporative moat around the test wells. Following a 5-day incubation period, the plates are read using ATPlite (50 uL added per well), which quantifies the amount of ATP (a measure of cell health) present in each well. Assay plates are read using the Envision luminometer. […] EC50 ranges are as follows: A<0.01 μM; B 0.01-0.05 μM; C>0.05 μM.

EC50	SMILES
< 10 nM	COc1cc(C(=O)NC[C@](O)(c2cc(C(F)(F)C(N)=O)c(F)c(-c3cc(Cl)c(F)cc3F)n2)C2CC2)cc2cn(C3(F)CC3)nc12 (single isomer, unassigned) [Example 39]
> 50 nM	COc1cc(C(=O)NC[C@](O)(c2cc(C(F)(F)C(N)=O)c(F)c(-c3ccc(F)c(Cl)c3F)n2)C2CC2)cc2cc(Cl)c(C)nc12 (single isomer, unassigned) [Example 35]
10 to 50 nM	COc1cc(C(=O)NC[C@](O)(c2cc(C(F)(F)C(N)=O)c(F)c(-c3ccc(F)c(Cl)c3F)n2)C2CC2)cc2cn(C3CC3)nc12 (single isomer, unassigned) [Example 32]
< 10 nM	Cc1nc2c(OC3CC3)cc(C(=O)NC[C@](O)(c3cc(C(C)(C)C(N)=O)c(F)c(-c4ccc(F)cc4)n3)C3CC3)cc2cc1Cl (single isomer, unassigned) [Example 44]
10 to 50 nM	COc1cc(C(=O)NC[C@](O)(c2cc(C(F)(F)C(N)=O)c(F)c(-c3ccc(F)c(Cl)c3F)n2)C2CC2)cc2cn(C(F)F)nc12 (single isomer, unassigned) [Example 34]
< 10 nM	COc1cc(C(=O)NC[C@](O)(c2cc(C(C)(C)C(N)=O)c(F)c(-c3ccc(F)cc3)n2)C2CC2)cc2cn(C3CC3)nc12 (single isomer, unassigned) [Example 43]
